Laboratory results taken from patent US11714087B2, “Treatment of necroptosis” (priority 2018, dated 2023).

Key:
Format in all cases: in vivo, Sprague-Dawley rats
RIPK1 = biological target: T1, RIPK1 (Rattus norvegicus, UniProt D3ZYL0); experiment: Rodent ACLF model (BDL+LPS rats): RIPK1 immunostaining of liver tissue; conditions: 3.3 mg/kg Nec-1 i.p. 3 hr before LPS, vs BDL+Vehicle+LPS, p=0.009
T1 construct: Representative images of liver tissue of sham, BDL, BDL+LPS and BDL+NEC-1+LPS stained for RIPK1; from tissue; host or cells: rat liver (BDL+LPS ACLF model)
T1 sequence (D3ZYL0 1-658): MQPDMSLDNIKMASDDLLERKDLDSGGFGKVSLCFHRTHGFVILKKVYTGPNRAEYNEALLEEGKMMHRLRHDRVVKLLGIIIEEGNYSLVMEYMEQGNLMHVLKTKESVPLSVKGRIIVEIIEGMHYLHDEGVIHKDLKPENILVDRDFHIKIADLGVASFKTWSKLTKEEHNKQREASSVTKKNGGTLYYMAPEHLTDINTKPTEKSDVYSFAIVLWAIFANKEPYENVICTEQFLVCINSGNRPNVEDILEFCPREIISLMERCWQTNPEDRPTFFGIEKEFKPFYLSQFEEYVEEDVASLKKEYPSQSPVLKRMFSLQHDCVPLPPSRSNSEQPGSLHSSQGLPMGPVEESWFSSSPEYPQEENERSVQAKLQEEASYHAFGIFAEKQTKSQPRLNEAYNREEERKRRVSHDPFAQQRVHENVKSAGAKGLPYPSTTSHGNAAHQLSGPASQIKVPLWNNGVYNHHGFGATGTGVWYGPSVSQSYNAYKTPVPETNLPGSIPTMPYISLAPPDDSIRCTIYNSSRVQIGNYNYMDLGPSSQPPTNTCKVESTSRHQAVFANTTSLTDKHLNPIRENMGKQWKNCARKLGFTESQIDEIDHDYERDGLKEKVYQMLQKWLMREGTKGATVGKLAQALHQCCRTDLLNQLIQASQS
Experimental: (§1) The animal model of ACLF utilised in this study was developed using a well-characterized rodent model of advanced fibrosis induced by bile duct ligation (BDL) with ACLF induced in this model by infusion of LPS. Bile duct ligation, housing, and care of the animals were performed as previously described. Four groups of adult male Sprague-Dawley rats were studied (n=4-8 in each group). The animals were studied 4 weeks after either sham-operation or BDL. The animals in each group were terminated 3-h after administration of LPS (Klebsiella pneumoniae) (0.3 mg/kg/hr, intravenously) or saline under terminal anaesthesia.
(§2) Necrostatin 1 (Nec-1, Calbiochem, Sigma Aldrich, UK) was prepared as follows. Nec-1 was redissolved in N-2 methyl-pyrrolidone (NMP) to make a 200 mg/ml stock solution which was then further diluted to an intermediate concentration of 40 mg/ml in NMP. […]
(§3) Terminal deoxynucleotidyl transferase biotin-dUTP nick end labeling (TUNEL) staining of deparaffinised and proteinase K-treated liver and kidney sections was performed using the In-Situ Cell Death Detection kit, POD (Roche, UK) as per manufacturer's protocol. […] Quantitative analysis of immunohistochemistry positive area was assessed by measuring optical density using FIJI Image J software.

[1] = test system: liver and kidney sections; experiment: Rodent ACLF model (BDL+LPS rats): TUNEL staining of liver and kidney sections (cell death)
Experimental: as §1, §2, §3

RIPK3 = experiment: Rodent ACLF model (BDL+LPS rats): plasma RIPK3 by ELISA; conditions: BDL+NEC-1+LPS vs BDL+Vehicle+LPS
Experimental: as §1, §2
Blood was withdrawn from the carotid line and immediately placed in heparin or EDTA-containing tubes (until full exsanguination), centrifuged (3,500 rpm for 10 min at 4° C.) and the plasma was stored at −80° C. for later use in biochemistry and RIPK3 quantification [Rat RIPK3 (Receptor-interacting serine/threonineprotein kinase) ELISA kit, Cat. No. ER0446, Wuhan Fine Biological Technology Co., Ltd., China]. […]

[2] = Rodent ACLF model (BDL+LPS rats): plasma biochemistry, histone 3 and brain water
Experimental: as §1
Necrostatin 1 (Nec-1, Calbiochem, Sigma Aldrich, UK) was prepared as follows. Nec-1 was redissolved in N-2 methyl-pyrrolidone (NMP) to make a 200 mg/ml stock solution which was then further diluted to an intermediate concentration of 40 mg/ml in NMP. The 40 mg/ml solution was finally diluted to a working concentration of 1 mg/ml in a solution of 30% (2-hydroxypropyl) β-cyclodextrin (Sigma, Cat No H107)/0.5% Citric acid.
(§4) 4. BDL animals administered LPS and Nec-1; This group of BDL rats received an i.p. injection of 3.3 mg/kg Nec-1 followed, by an i.p injection of LPS, 3 hr later.
Animals were sacrificed 3 hours after LPS.
Blood was withdrawn from the carotid line and immediately placed in heparin or EDTA-containing tubes (until full exsanguination), centrifuged (3,500 rpm for 10 min at 4° C.) and the plasma was stored at −80° C. for later use in biochemistry and RIPK3 quantification [Rat RIPK3 (Receptor-interacting serine/threonineprotein kinase) ELISA kit, Cat. No. ER0446, Wuhan Fine Biological Technology Co., Ltd., China]. Organs were harvested and either fixed in formalin for histological assessment or snap frozen.

Caspase 3/7 = experiment: Liver Caspase 3/7 activity (Caspase-Glo) in rodent ACLF model; conditions: BDL+NEC-1+LPS group; IQR 1640-3890; p=0.626 compared to BDL
Experimental: as §1, §4
(§5) Liver Caspase 3/7 and 8 activities were measured using Caspase-Glo assay kits (Promega). Briefly, cytosolic extracts from liver tissue were obtained by homogenisation in hypotonic extraction buffer [10 mM HEPES, 0.5% Triton X-100, 2 mM DTT, protease inhibitor cocktail (Sigma)] using a TissueLyser LT sytem (Qiagen, UK). […] After quantification using BCA™ Protein Assay Kit (Pierce, UK), protein concentrations of supernatant were adjusted to 1 mg/ml with extraction buffer and stored at −80° C. […] Luminescence was measured using a plate-reading luminometer (FLUOstar Omega, BMG Labtech, UK).

Caspase 8 = experiment: Liver Caspase 8 activity (Caspase-Glo) in rodent ACLF model; conditions: BDL+NEC-1+LPS group; IQR 313.5-414.3; p=0.020 compared to BDL
Experimental: as §1, §4, §5

Q: For CN1C(=O)C(Cc2c[nH]c3ccccc23)NC1=S (stereo not drawn) [NEC-1, Necrostatin 1], which “expression of RIPK1 in liver (immunostaining optical density)” value (RIPK1) is on record?
A: significantly decreased

Q: What about the “total cell death in the livers (TUNEL staining)” value ([1]; BDL+NEC-1+LPS vs BDL+Vehicle+LPS, p=0.001) of the same compound?
A: significant reduction in total cell death

Q: And the “cell death in kidneys (TUNEL staining)” value ([1]; BDL+NEC-1+LPS vs BDL+vehicle+LPS, p=0.002)?
A: significant reduction in cell death

Q: And the “plasma RIPK3 levels” value (RIPK3)?
A: reduced markedly

Q: And the plasma urea levels ([2]; BDL+NEC-1+LPS vs BDL+Vehicle+LPS, p=0.012)?
A: significant reduction

Q: What about the plasma albumin levels ([2]; BDL+NEC-1+LPS vs BDL+Vehicle+LPS, p=0.017) of the same compound?
A: significantly higher

Q: What about the plasma creatinine ([2]; BDL+NEC-1+LPS vs BDL+Vehicle+LPS, p=0.020) of the same compound?
A: significant reduction

Q: And the “plasma AST” value ([2]; BDL+NEC-1+LPS vs BDL+Vehicle+LPS, p=0.037)?
A: significantly lower

Q: And the brain water content ([2]; BDL+NEC-1+LPS vs BDL+Vehicle+LPS, p=0.100)?
A: reduction in brain water content, although not statistically significant

Q: And the “circulating levels of histone 3” value ([2]; NEC-1 treated group vs BDL+Vehicle+LPS, p=0.048)?
A: significant reduction in circulating levels of histone 3

Q: What about the “Caspase 3/7 activity in liver homogenates, median” value (Caspase 3/7) of the same compound?
A: 2857 RLU

Q: And the “Caspase 8 activity in liver homogenates, median” value (Caspase 8)?
A: 326.5 RLU
